The values that follow come from patent US11826351B2, “Compounds useful as kinase inhibitors” (Loxo Oncology, Inc., priority 2015, dated 2023).

Where two headings read alike, the source gives them in different places.

The target of experiment [1] is T1, Recombinant BTK^C481S kinase (Homo sapiens, UniProt Q06187, C481S).
T1 construct: purchased SignalChem
In words: BTK C481S binding affinity (LanthaScreen TR-FRET). The settings on record: Kinase Tracer 236, 5 h incubation. How it is done: (§1) BTK^C481S binding affinity of each compound tested was determined using a time-resolved fluorescence resonance energy transfer (TR-FRET) methodology. 5 nM Recombinant BTK^WT kinase, varying concentrations of inhibitor, 2 nM LanthaScreen™ Eu anti-His Antibody and 30 nM Kinase Tracer 236 was incubated in 1× LanthaScreen™ Kinase Buffer A for 5 h. Recombinant BTK^C481S kinase was purchased from SignalChem and all LanthaScreen™ components were purchased from Invitrogen. Measurements were performed in a reaction volume of 30 μL using half-area 96-well assay plates. The TR-FRET signal was read on a plate reader with an excitation wavelength of 340 nm and detection wavelengths of 615 and 665 nm. Binding affinity was determined for each compound by measuring TR-FRET signal at various concentrations of compound and plotting the relative fluorescence units against the inhibitor concentration to estimate the IC50 from log[Inhibitor] vs response using the Variable Slope model in Graphpad prism from Graphpad software (San Diego, Calif.).

For experiment [2], the target named is T2, Recombinant BTK^WT kinase (Homo sapiens, UniProt Q06187).
T2 construct: purchased Invitrogen
In words: BTK WT binding affinity (LanthaScreen TR-FRET). The settings on record: Kinase Tracer 236, 5 h incubation. How it is done: as §1, with “BTK^WT binding” for “BTK^C481S binding”, “methodology. 2.5” for “methodology. 5”, “and 15” for “and 30”, “Recombinant BTK” for “Recombinant BTK^C481S”, “kinase” for “kinase was purchased from SignalChem”
In general terms: Time-resolved FRET reads energy transfer from a long-lived donor to a nearby acceptor.

For experiment [3], the system named is OCI-Ly10 human DLBCL cells. In words: OCI-Ly10 anti-proliferative activity (Resazurin). Type of experiment: cell-based. The settings on record: OCI-Ly10 cells, 72 h compound treatment, Resazurin, read-out: Proliferation Assay OCI-Ly10-20% FBS. On the procedure: Compounds were assayed for effects on the growth of OCI-Ly10 human DLBCL cells that are dependent on NFκB signalling. […] Cells were then plated at 7.5×10^3 cells per well in 96-well plates in varying concentrations of compound and incubated for 72 h at 37° C. An additional plate of cells to be used as the Day 0 read was seeded without compound addition, Resazurin was added to each well, incubated for 5 h and the fluorescence measured at 590 nm. After 72 h of compound treatment, Resazurin was added to each well of the compound treated plates, incubated for 5 h and the fluorescence measured at 590 nm. The IC50 was then calculated by subtracting the average Day 0 value from each well value from the treated plates, each treatment was then calculated as a percentage of the DMSO control and the percentages plotted against the inhibitor concentration to estimate the IC50 from log[Inhibitor] vs response using the Variable Slope model in Graphpad prism from Graphpad software (San Diego, Calif.).

For a further experiment, the target named is T3, Recombinant EGFR (Homo sapiens, UniProt P00533).
T3 construct: purchased Invitrogen
The experiment in a line: EGFR binding affinity (LanthaScreen TR-FRET). To be noted: Kinase Tracer 199, 5 h incubation. On the procedure: EGFR binding affinity was determined using a time-resolved fluorescence resonance energy transfer (TR-FRET) methodology. […] Recombinant EGFR and all LanthaScreen™ components were purchased from Invitrogen. Measurements were performed in a reaction volume of 30 μL using half-area 96-well assay plates. […] Binding affinity was determined for each compound by measuring TR-FRET signal at various concentrations of compound and plotting the relative fluorescence units against the inhibitor concentration to estimate the IC50 from log[Inhibitor] vs response using the Variable Slope model in Graphpad prism from Graphpad software (San Diego, Calif.).

T3 sequence (P00533 25-1210): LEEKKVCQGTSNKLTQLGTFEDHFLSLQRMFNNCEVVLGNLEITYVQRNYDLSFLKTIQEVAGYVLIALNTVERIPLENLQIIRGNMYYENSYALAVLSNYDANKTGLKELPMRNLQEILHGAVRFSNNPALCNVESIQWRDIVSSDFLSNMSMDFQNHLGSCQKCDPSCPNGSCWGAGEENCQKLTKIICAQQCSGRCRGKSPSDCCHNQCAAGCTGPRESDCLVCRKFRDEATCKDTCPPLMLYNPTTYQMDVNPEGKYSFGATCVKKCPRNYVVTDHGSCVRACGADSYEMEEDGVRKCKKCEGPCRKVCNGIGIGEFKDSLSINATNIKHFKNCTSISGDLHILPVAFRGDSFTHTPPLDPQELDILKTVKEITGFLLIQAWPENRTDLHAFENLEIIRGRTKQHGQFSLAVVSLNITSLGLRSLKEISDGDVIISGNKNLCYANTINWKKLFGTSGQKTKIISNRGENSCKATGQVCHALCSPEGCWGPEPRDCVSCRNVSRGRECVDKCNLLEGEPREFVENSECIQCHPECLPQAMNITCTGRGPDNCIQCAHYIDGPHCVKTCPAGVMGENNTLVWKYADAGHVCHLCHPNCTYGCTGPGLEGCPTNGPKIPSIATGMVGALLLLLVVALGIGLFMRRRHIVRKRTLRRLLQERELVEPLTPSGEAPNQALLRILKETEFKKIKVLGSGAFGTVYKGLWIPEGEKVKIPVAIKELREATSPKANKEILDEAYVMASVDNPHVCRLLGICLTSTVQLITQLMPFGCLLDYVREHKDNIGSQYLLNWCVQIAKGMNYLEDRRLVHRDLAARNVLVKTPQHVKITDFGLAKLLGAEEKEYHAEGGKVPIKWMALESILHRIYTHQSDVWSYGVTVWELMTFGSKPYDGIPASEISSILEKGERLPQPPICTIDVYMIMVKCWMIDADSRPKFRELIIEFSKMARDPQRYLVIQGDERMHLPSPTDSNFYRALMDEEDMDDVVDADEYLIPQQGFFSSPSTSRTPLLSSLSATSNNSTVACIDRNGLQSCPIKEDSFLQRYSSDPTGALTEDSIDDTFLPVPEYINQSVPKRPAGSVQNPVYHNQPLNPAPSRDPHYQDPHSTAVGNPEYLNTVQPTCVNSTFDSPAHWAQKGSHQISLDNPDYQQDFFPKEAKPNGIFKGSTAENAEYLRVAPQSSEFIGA
T1 sequence (Q06187 whole entry C481S): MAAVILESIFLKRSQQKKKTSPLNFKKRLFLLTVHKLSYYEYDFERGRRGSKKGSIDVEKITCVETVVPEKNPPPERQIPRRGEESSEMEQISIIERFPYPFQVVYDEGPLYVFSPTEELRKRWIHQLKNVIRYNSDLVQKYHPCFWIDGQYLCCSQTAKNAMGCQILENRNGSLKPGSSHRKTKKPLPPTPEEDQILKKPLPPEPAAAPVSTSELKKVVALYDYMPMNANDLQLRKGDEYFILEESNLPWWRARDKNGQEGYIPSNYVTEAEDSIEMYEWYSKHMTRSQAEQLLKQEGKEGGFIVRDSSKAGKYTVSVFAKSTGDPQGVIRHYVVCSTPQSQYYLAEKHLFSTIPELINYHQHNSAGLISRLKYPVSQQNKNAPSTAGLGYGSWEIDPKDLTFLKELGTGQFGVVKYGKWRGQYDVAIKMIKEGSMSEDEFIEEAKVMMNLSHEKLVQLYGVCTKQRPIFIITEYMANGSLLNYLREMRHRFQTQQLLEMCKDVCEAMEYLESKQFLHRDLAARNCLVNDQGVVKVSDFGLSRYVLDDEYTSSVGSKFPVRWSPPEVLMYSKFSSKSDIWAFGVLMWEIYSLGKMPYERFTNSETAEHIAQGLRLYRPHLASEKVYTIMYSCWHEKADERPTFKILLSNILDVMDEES
T2 sequence (Q06187 whole entry): as the sequence (Q06187 whole entry C481S) above, with S481C counted along it

Consider `COc1ccccc1C(=O)NCc1ccc(-c2nn(C3CCOC3)c(N)c2C(N)=O)c(F)c1` (stereo not drawn) [Example 100, 5-amino-3-[2-fluoro-4-[[(2-methoxybenzoyl)amino]methyl]phenyl]-1-tetrahydrofuran-3-yl-pyrazole-4-carboxamide], for which the IC50 in experiment [1] was under 10 nM; in experiment [2] it was 10 to 100 nM; in experiment [3] (Homo sapiens, OCI-Ly10, 72 h), 100 to 1000 nM; on Recombinant EGFR it was over 10000 nM.
As to `COc1ccccc1C(=O)NCc1ccc(-c2nn(C3CCC(OCc4ccccc4)CC3)c(N)c2C(N)=O)cc1` (mixture of isomers) [Example 28, 5-Amino-1-(4-benzyloxycyclohexyl)-3-[4-[[(2-methoxybenzoyl)amino]methyl]phenyl]pyrazole-4-carboxamide], the IC50 in experiment [1] is under 10 nM; in experiment [2], under 10 nM; in experiment [3] (Homo sapiens, OCI-Ly10, 72 h), 10 to 100 nM; at Recombinant EGFR, 100 to 1000 nM.
As for `CCOC(=O)C1CCC(n2nc(-c3ccc(CNC(=O)c4ccccc4OC)cc3)c(C(N)=O)c2N)CC1` (stereo not drawn) [Example 40, Ethyl 4-[5-amino-4-carbamoyl-3-[4-[[(2-methoxybenzoyl)amino]methyl]phenyl]pyrazol-1-yl]cyclohexanecarboxylate], the IC50 in experiment [1] was under 10 nM; in experiment [2] it was under 10 nM; in experiment [3] (Homo sapiens, OCI-Ly10, 72 h), 10 to 100 nM; on Recombinant EGFR it was 100 to 1000 nM.
With `COc1ccccc1C(=O)NCc1ccc(-c2nn([C@@H]3COC[C@H]3O)c(N)c2C(N)=O)cc1` (relative stereo) [Example 94, 5-amino-1-[trans-4-hydroxytetrahydrofuran-3-yl]-3-[4-[[(2-methoxybenzoyl)amino]methyl]phenyl]pyrazole-4-carboxamide], the IC50 is under 10 nM in experiment [1]; 10 to 100 nM in experiment [2]; 1000 to 10000 nM in experiment [3] (Homo sapiens, OCI-Ly10, 72 h); 1000 to 10000 nM on Recombinant EGFR.
For `COc1ccccc1C(=O)NCc1ccc(-c2nn([C@@H]3CCOC3)c(N)c2C(N)=O)cc1` [Example 83b, 5-amino-3-[4-[[(2-methoxybenzoyl)amino]methyl]phenyl]-1-[(3R)-tetrahydrofuran-3-yl]pyrazole-4-carboxamide], the IC50 was under 10 nM in experiment [1]; under 10 nM in experiment [2]; 10 to 100 nM in experiment [3] (Homo sapiens, OCI-Ly10, 72 h); 1000 to 10000 nM on Recombinant EGFR.
Consider `COc1ccccc1C(=O)NCc1ccc(-c2nn(C3CCC(C(=O)O)CC3)c(N)c2C(N)=O)cc1` (mixture of isomers) [Example 74, 4-[5-amino-4-carbamoyl-3-[4-[[(2-methoxybenzoyl)amino]methyl]phenyl]pyrazol-1-yl]cyclohexanecarboxylic acid], for which the IC50 was under 10 nM in experiment [1]; under 10 nM in experiment [2]; 1000 to 10000 nM in experiment [3] (Homo sapiens, OCI-Ly10, 72 h); 100 to 1000 nM on Recombinant EGFR.
In the case of `COc1ccccc1C(=O)NCc1ccc(-c2nn(CC3CCCCC3)c(N)c2C(N)=O)cc1` [Example 17, 5-amino-1-(cyclohexylmethyl)-3-[4-[[(2-methoxybenzoyl)amino]methyl]phenyl]pyrazole-4-carboxamide], the IC50 is under 10 nM in experiment [1]; under 10 nM in experiment [2]; 10 to 100 nM in experiment [3] (Homo sapiens, OCI-Ly10, 72 h); 100 to 1000 nM on Recombinant EGFR.
Take `COc1ccc(F)cc1C(=O)NCc1ccc(-c2nn(C3CCOCC3)c(N)c2C(N)=O)c(F)c1` [Example 106, 5-amino-3-[2-fluoro-4-[[(5-fluoro-2-methoxy-benzoyl)amino]methyl]phenyl]-1-tetrahydropyran-4-yl-pyrazole-4-carboxamide]: the IC50 in experiment [1] is under 10 nM; in experiment [2], under 10 nM; in experiment [3] (Homo sapiens, OCI-Ly10, 72 h), 100 to 1000 nM; on Recombinant EGFR, over 10000 nM.
Take `COc1ccccc1C(=O)NCc1ccc(-c2nn(-c3nc(C)cs3)c(N)c2C(N)=O)cc1` [Example 67, 5-amino-3-[4-[[(2-methoxybenzoyl)amino]methyl]phenyl]-1-(4-methylthiazol-2-yl)pyrazole-4-carboxamide]: in experiment [2], the IC50 fell in the range of 100 to 1000 nM.
`COc1ccccc1C(=O)NC(CO)c1ccc(-c2nn(C3CCCC3)c(N)c2C(N)=O)cc1C` (stereo not drawn) [Example 185, 5-amino-1-cyclopentyl-3-[4-[2-hydroxy-1-[(2-methoxybenzoyl)amino]ethyl]-3-methyl-phenyl]pyrazole-4-carboxamide]: the IC50 (in experiment [1]; in experiment [2]; at Recombinant EGFR) was 1000 to 10000 nM in each case.
As for `COc1ccccc1C(=O)NCc1ccc(-c2nn([C@@H]3CCC[C@H]3O)c(N)c2C(N)=O)cc1` (relative stereo) [Example 2, 5-Amino-1-[(1R*,2R*)-2-hydroxycyclopentyl]-3-[4-[[(2-methoxybenzoyl)amino]methyl]phenyl]pyrazole-4-carboxamide], the IC50 in experiment [1] was under 10 nM; in experiment [2], under 10 nM; in experiment [3] (Homo sapiens, OCI-Ly10, 72 h) it was 100 to 1000 nM.
As to `COc1ccc(F)cc1C(=O)NCc1ccc(-c2nn(C(C3CC3)C(F)(F)F)c(N)c2C(N)=O)cc1` (stereo not drawn) [Example 188, 5-amino-1-(1-cyclopropyl-2,2,2-trifluoro-ethyl)-3-[4-[[(5-fluoro-2-methoxy-benzoyl)amino]methyl]phenyl]pyrazole-4-carboxamide], the IC50 in experiment [1] is under 10 nM; in experiment [2], under 10 nM; on Recombinant EGFR it was 1000 to 10000 nM.
On to `COc1ccccc1C(=O)NCc1c(F)cc(-c2nn(C3CCOCC3)c(N)c2C(N)=O)cc1F` [Example 132, 5-amino-3-[3,5-difluoro-4-[[(2-methoxybenzoyl)amino]methyl]phenyl]-1-tetrahydropyran-4-yl-pyrazole-4-carboxamide], for which the IC50 in experiment [1] was 10 to 100 nM; in experiment [2], 100 to 1000 nM; on Recombinant EGFR, over 10000 nM.
As to `COc1ccccc1C(=O)NCc1ccc(-c2nn(C3CCCC3)c(Nc3ccccc3)c2C(N)=O)cc1` [Example 56, 5-anilino-1-cyclopentyl-3-[4-[[(2-methoxybenzoyl)amino]methyl]phenyl]pyrazole-4-carboxamide], the IC50 in experiment [1] lay within 100 to 1000 nM; in experiment [2], 100 to 1000 nM; in experiment [3] (Homo sapiens, OCI-Ly10, 72 h), 1000 to 10000 nM.
For the compound `COc1ccccc1C(=O)NCc1ccc(-c2nn(C[C@H]3CCCNC3)c(N)c2C(N)=O)cc1` [Example 42, 5-amino-3-[4-[[(2-methoxybenzoyl)amino]methyl]phenyl]-1-[[(3S)-3-piperidyl]methyl]pyrazole-4-carboxamide], the IC50 (in experiment [2]; at Recombinant EGFR) was over 10000 nM in each case.
`COc1ccc(F)cc1C(=O)NCc1c(F)cc(-c2nn(C3CCOCC3)c(N)c2C(N)=O)cc1F` [Example 133, 5-amino-3-[3,5-difluoro-4-[[(5-fluoro-2-methoxy-benzoyl)amino]methyl]phenyl]-1-tetrahydropyran-4-yl-pyrazole-4-carboxamide]: the IC50 is 10 to 100 nM in experiment [1], 100 to 1000 nM in experiment [2] and over 10000 nM at Recombinant EGFR.
For `COc1ccccc1C(=O)NCc1ccc(-c2nn(C3CCC(C)(O)CC3)c(N)c2C(N)=O)cc1` (single isomer, unassigned) [Example 27, 5-Amino-1-(4-hydroxy-4-methyl-cyclohexyl)-3-[4-[[(2-methoxybenzoyl)amino]methyl]phenyl]pyrazole-4-carboxamide], the IC50 in experiment [2] was under 10 nM; in experiment [3], 10 to 100 nM; on Recombinant EGFR it was 100 to 1000 nM.
On to `CNC(=O)c1c(-c2ccc(CNC(=O)c3ccccc3OC)cc2)nn(C2CCCC2)c1N` [Example 69, 5-amino-1-cyclopentyl-3-[4-[[(2-methoxybenzoyl)amino]methyl]phenyl]-N-methyl-pyrazole-4-carboxamide], for which, in experiment [2], the IC50 is over 10000 nM.
